{"source": "ChEMBL document CHEMBL5137134", "about": "“Developing the Natural Prenylflavone Artocarpin from Artocarpus hirsutus as a Potential Lead Targeting Pathogenic, Multidrug-Resistant Staphylococcus aureus, Persisters and Biofilms with No Detectable Resistance” (J Nat Prod, 2022)", "key": {"[1]": {"assay": "Selectivity index, ratio of CC50 for African green monkey Vero cells to MIC for Staphylococcus aureus ATCC 29213", "assay_type": "toxicity", "details": "read-out: Selectivity Index"}, "Acinetobacter baumannii": {"test_system": "Acinetobacter baumannii", "assay": "Antibacterial activity against Acinetobacter baumannii BAA 1605 assessed as reduction in bacterial growth incubated for 16 to 18 hrs in presence of PMBN by broth microdilution method", "assay_type": "functional", "details": "time 16-18 hrs"}, "Staphylococcus aureus [2]": {"test_system": "Staphylococcus aureus", "assay": "Antibacterial activity against methicillin/levoflaxacin/meropenem resistant Staphylococcus aureus NRS 191 assessed as reduction in bacterial growth incubated for 16 to 18 hrs by broth microdilution method", "assay_type": "functional", "details": "time 16-18 hrs"}, "Staphylococcus aureus [3]": {"test_system": "Staphylococcus aureus", "assay": "Antibacterial activity against methicillin/levoflaxacin/meropenem resistant Staphylococcus aureus NRS 193 assessed as reduction in bacterial growth incubated for 16 to 18 hrs by broth microdilution method", "assay_type": "functional", "details": "time 16-18 hrs"}, "Staphylococcus aureus [4]": {"test_system": "Staphylococcus aureus", "assay": "Antibacterial activity against methicillin/meropenem resistant Staphylococcus aureus NRS 194 assessed as reduction in bacterial growth incubated for 16 to 18 hrs by broth microdilution method", "assay_type": "functional", "details": "time 16-18 hrs"}, "Enterococcus [5]": {"test_system": "Enterococcus", "assay": "Antibacterial activity against vancomycin sensitive/methicillin resistant Enterococcus NR 31884 assessed as reduction in bacterial growth incubated for 16 to 18 hrs by broth microdilution method", "assay_type": "functional", "details": "time 16-18 hrs"}, "Enterococcus [6]": {"test_system": "Enterococcus", "assay": "Antibacterial activity against vancomycin sensitive/methicillin resistant Enterococcus NR 31886 assessed as reduction in bacterial growth incubated for 16 to 18 hrs by broth microdilution method", "assay_type": "functional", "details": "time 16-18 hrs"}, "Enterococcus [7]": {"test_system": "Enterococcus", "assay": "Antibacterial activity against vancomycin sensitive/methicillin resistant Enterococcus NR 31887 assessed as reduction in bacterial growth incubated for 16 to 18 hrs by broth microdilution method", "assay_type": "functional", "details": "time 16-18 hrs"}, "Enterococcus [8]": {"test_system": "Enterococcus", "assay": "Antibacterial activity against vancomycin sensitive/methicillin resistant Enterococcus NR 31888 assessed as reduction in bacterial growth incubated for 16 to 18 hrs by broth microdilution method", "assay_type": "functional", "details": "time 16-18 hrs"}, "Enterococcus [9]": {"test_system": "Enterococcus", "assay": "Antibacterial activity against vancomycin/methicillin/levoflaxacin/minocycline resistant Enterococcus NR 31912 assessed as reduction in bacterial growth incubated for 16 to 18 hrs by broth microdilution method", "assay_type": "functional", "details": "time 16-18 hrs"}, "Staphylococcus aureus [10]": {"test_system": "Staphylococcus aureus", "assay": "Antibacterial activity against Staphylococcus aureus ATCC 29213 infected in mouse J774A.1 cells assessed as reduction in intracellular bacterial cells at 5 times MIC incubated for 24 hrs followed by re-plating on TSA plate and measured after 18 to 24 hrs", "assay_type": "functional"}, "Staphylococcus aureus [11]": {"test_system": "Staphylococcus aureus", "assay": "Synergistic antibacterial activity against Staphylococcus aureus ATCC 29213 assessed as reduction in bacterial growth incubated for 24 hrs in presence of gentamycin by checkerboard method", "assay_type": "functional"}, "Staphylococcus aureus [12]": {"test_system": "Staphylococcus aureus", "assay": "Synergistic antibacterial activity against Staphylococcus aureus ATCC 29213 assessed as reduction in bacterial growth incubated for 24 hrs in presence of levofloxacin by checkerboard method", "assay_type": "functional"}, "Staphylococcus aureus [13]": {"test_system": "Staphylococcus aureus", "assay": "Synergistic antibacterial activity against Staphylococcus aureus ATCC 29213 assessed as reduction in bacterial growth incubated for 24 hrs in presence of ceftazidime by checkerboard method", "assay_type": "functional"}, "Staphylococcus aureus [14]": {"test_system": "Staphylococcus aureus", "assay": "Synergistic antibacterial activity against Staphylococcus aureus ATCC 29213 assessed as reduction in bacterial growth incubated for 24 hrs in presence of minocycline by checkerboard method", "assay_type": "functional"}, "Staphylococcus aureus [15]": {"test_system": "Staphylococcus aureus", "assay": "Synergistic antibacterial activity against Staphylococcus aureus ATCC 29213 assessed as reduction in bacterial growth incubated for 24 hrs in presence of rifampicin by checkerboard method", "assay_type": "functional"}, "Staphylococcus aureus [16]": {"test_system": "Staphylococcus aureus", "assay": "Synergistic antibacterial activity against Staphylococcus aureus ATCC 29213 assessed as reduction in bacterial growth incubated for 24 hrs in presence of vancomycin by checkerboard method", "assay_type": "functional"}, "Staphylococcus aureus [17]": {"test_system": "Staphylococcus aureus", "assay": "Post antibiotic effect against Staphylococcus aureus ATCC 29213 assessed as time required for 1 log10 increase in CFU at 1 time MIC incubated for 1 hr followed by replacement with drug free medium and measured every 1 hr (reference value: 2 hrs)", "assay_type": "functional"}, "Staphylococcus aureus [18]": {"test_system": "Staphylococcus aureus", "assay": "Post antibiotic effect against Staphylococcus aureus ATCC 29213 assessed as time required for 1 log10 increase in CFU at 10 times MIC incubated for 1 hr followed by replacement with drug free medium and measured every 1 hr (reference value: 2 hrs)", "assay_type": "functional"}, "Staphylococcus aureus [19]": {"test_system": "Staphylococcus aureus", "assay": "Bactericidal activity against Staphylococcus aureus ATCC 29213 assessed as increase in extracellular ATP level after 1 hr by ATP bioluminescence assay", "assay_type": "functional, organism-based", "details": "DDE = dose-dependent effect"}, "Staphylococcus aureus [20]": {"test_system": "Staphylococcus aureus", "assay": "Bactericidal activity against Staphylococcus aureus ATCC 29213 assessed as decrease in intracellular ATP level after 1 hr by ATP bioluminescence assay", "assay_type": "functional, organism-based", "details": "DDE = dose-dependent effect"}, "Staphylococcus aureus [21]": {"test_system": "Staphylococcus aureus", "assay": "Antibacterial activity against Staphylococcus aureus ATCC 29213 infected in BALB/c mouse neutropenic thigh infection model assessed as reduction in thigh bacterial load at 50 mg/kg, ip pre-infected with bacteria for 3 hrs followed by compound addition twice at a interval of 3 hrs and measured after 24 hrs", "assay_type": "functional"}, "Staphylococcus aureus [22]": {"test_system": "Staphylococcus aureus", "assay": "Antibacterial activity against Staphylococcus aureus ATCC 29213 infected in Swiss mouse skin infection model assessed as reduction in skin bacterial load at 1 % dose administered twice daily for 4 days", "assay_type": "functional", "details": "time 4 day"}, "Staphylococcus aureus [23]": {"test_system": "Staphylococcus aureus", "assay": "Synergistic antibacterial activity against Staphylococcus aureus ATCC 29213 assessed as fractional inhibitory concentration incubated for 24 hrs in presence of gentamycin by checkerboard method", "assay_type": "functional"}, "Staphylococcus aureus [24]": {"test_system": "Staphylococcus aureus", "assay": "Synergistic antibacterial activity against Staphylococcus aureus ATCC 29213 assessed as fractional inhibitory concentration incubated for 24 hrs in presence of linezolid by checkerboard method", "assay_type": "functional"}, "Staphylococcus aureus [25]": {"test_system": "Staphylococcus aureus", "assay": "Synergistic antibacterial activity against Staphylococcus aureus ATCC 29213 assessed as fractional inhibitory concentration incubated for 24 hrs in presence of levofloxacin by checkerboard method", "assay_type": "functional"}, "Staphylococcus aureus [26]": {"test_system": "Staphylococcus aureus", "assay": "Synergistic antibacterial activity against Staphylococcus aureus ATCC 29213 assessed as fractional inhibitory concentration incubated for 24 hrs in presence of meropenem by checkerboard method", "assay_type": "functional"}, "Staphylococcus aureus [27]": {"test_system": "Staphylococcus aureus", "assay": "Synergistic antibacterial activity against Staphylococcus aureus ATCC 29213 assessed as fractional inhibitory concentration incubated for 24 hrs in presence of vancomycin by checkerboard method", "assay_type": "functional"}}, "data": [{"smiles": "COc1cc2oc(-c3ccc(O)cc3O)c(CC=C(C)C)c(=O)c2c(O)c1/C=C/C(C)C", "note": "[ARTOCARPIN]", "values": [{"measurement": "selectivity ratio", "setting": "[1]", "result": 40}, {"measurement": "MIC", "setting": "Acinetobacter baumannii", "result": 4, "unit": "µg/mL"}, {"measurement": "MIC", "setting": "Staphylococcus aureus [2]", "result": 4, "unit": "µg/mL"}, {"measurement": "MIC", "setting": "Staphylococcus aureus [3]", "result": 4, "unit": "µg/mL"}, {"measurement": "MIC", "setting": "Staphylococcus aureus [4]", "result": 4, "unit": "µg/mL"}, {"measurement": "MIC", "setting": "Enterococcus [5]", "result": 2, "unit": "µg/mL"}, {"measurement": "MIC", "setting": "Enterococcus [6]", "result": 2, "unit": "µg/mL"}, {"measurement": "MIC", "setting": "Enterococcus [7]", "result": 2, "unit": "µg/mL"}, {"measurement": "MIC", "setting": "Enterococcus [8]", "result": 2, "unit": "µg/mL"}, {"measurement": "MIC", "setting": "Enterococcus [9]", "result": 2, "unit": "µg/mL"}, {"measurement": "Activity", "setting": "Staphylococcus aureus [10]", "result": 3.25, "unit": "log10CFU/ml"}, {"measurement": "MIC", "setting": "Staphylococcus aureus [11]", "result": 0.06, "unit": "µg/mL"}, {"measurement": "MIC", "setting": "Staphylococcus aureus [12]", "result": 2, "unit": "µg/mL"}, {"measurement": "MIC", "setting": "Staphylococcus aureus [13]", "result": 2, "unit": "µg/mL"}, {"measurement": "MIC", "setting": "Staphylococcus aureus [14]", "result": 1, "unit": "µg/mL"}, {"measurement": "MIC", "setting": "Staphylococcus aureus [15]", "result": 2, "unit": "µg/mL"}, {"measurement": "MIC", "setting": "Staphylococcus aureus [16]", "result": 2, "unit": "µg/mL"}, {"measurement": "Time", "setting": "Staphylococcus aureus [17]", "result": 5, "unit": "h"}, {"measurement": "Time", "setting": "Staphylococcus aureus [18]", "result": 24, "unit": "h"}, {"measurement": "Activity", "setting": "Staphylococcus aureus [19]", "result": "Dde"}, {"measurement": "Activity", "setting": "Staphylococcus aureus [20]", "result": "Dde"}, {"measurement": "Activity", "setting": "Staphylococcus aureus [21]", "result": 0.6, "unit": "log10CFU/g"}, {"measurement": "Activity", "setting": "Staphylococcus aureus [22]", "result": 1, "unit": "log10CFU/g"}, {"measurement": "FIC", "setting": "Staphylococcus aureus [23]", "result": 0.015}, {"measurement": "FIC", "setting": "Staphylococcus aureus [24]", "result": 0.25}, {"measurement": "FIC", "setting": "Staphylococcus aureus [25]", "result": 0.5}, {"measurement": "FIC", "setting": "Staphylococcus aureus [26]", "result": 0.5}, {"measurement": "FIC", "setting": "Staphylococcus aureus [27]", "result": 0.5}]}]}
